{"source": "patent US4166765A", "about": "“Detecting Neisseria bacteria” (Corning Glass Works, priority 1977, dated 1979)", "data": [{"test_system": "1,2-propanediol dehydrogenase", "experiment": "Substrate specificity of the enzyme on analogs of 1,2-propanediol using NAD", "type": "biochemical, Neisseria", "design": "concentration or dose not given beside the values", "conditions": "substrate with NAD; relative to 1,2-propanediol = 100", "protocol": "The following reagents were added to 12×75 mm plastic tubes:\nTo each test tube was added 100 μl of a bacterial lysate. Incubations varied in time from being read immediately and continuously for 4 minutes, to allowing the assay tubes to incubate one-half hour before reading. All procedures and incubations were carried out at room temperature.\nThe samples were read at 340 nm (ultraviolet) on a Perkin-Elmer double beam spectrophotometer. A Honeywell Electronik 194 recorder was used to record absorbency. The tests that were read immediately and continuously for 4 minutes were allowed to record for the same time period. Those tests read after 30 minutes were not read continuously, but had their absorbencies recorded after the incubation period [Activity (A) was determined in the 4 minute monitored assay and in the 30 minute assay].\nIn order to examine the specificity of the substrate with respect to the enzyme, it was assayed on several analogs of 1,2-propanediol using NAD.", "units": {"% Reactivity": "%"}, "values": [{"molecule": "OCC(O)CCl", "note": "(stereo not shown) [1 chloro 2,3-propanediol]", "% Reactivity": 0}, {"molecule": "CCC(O)CO", "note": "(stereo not shown) [1,2 butanediol]", "% Reactivity": 10}, {"molecule": "OCCO", "note": "[1,2 ethanediol]", "% Reactivity": 0}, {"molecule": "CC(O)CO", "note": "(stereo not shown) [1,2-propanediol]", "% Reactivity": 100}, {"molecule": "OCCCO", "note": "[1,3 propanediol]", "% Reactivity": 0}, {"molecule": "CCCO", "note": "[1-propanol]", "% Reactivity": 0}, {"molecule": "CC(C)O", "note": "[2-propanol]", "% Reactivity": 0}, {"molecule": "O=C(CO)CO", "note": "[Dihydroxyacetone]", "% Reactivity": 21}, {"molecule": "CCO", "note": "[Ethanol]", "% Reactivity": 0}, {"molecule": "OCC(O)CO", "note": "[Glycerol]", "% Reactivity": 1}]}]}
